These results are taken from publication PMC11220592 (Chemical Science, 2024).

Where two headings read alike, the source gives them in different places.

In one experiment the target is SARS-CoV-2 nsp13 (Severe acute respiratory syndrome coronavirus 2, UniProt P0DTD1). Type of experiment: binding.
Experiment [1] deals with T1, SARS-CoV-2 helicase (nsp13) (Severe acute respiratory syndrome coronavirus 2, UniProt P0DTD1). The settings on record: read-out: IC50 for unwinding activity.
Experiment [2] deals with T1, SARS-CoV-2 helicase (nsp13).
The mark [3] stands for this setting: 100 nM nsp13, compound at 1 μM, 10 nM probe.

For `Nc1nc2nc[nH]c2c(=S)[nH]1` [6-TG, 6-thioguanine], on SARS-CoV-2 nsp13 (setting [3]), the “fluorescence intensity of BODIPY FL ATP-γ-S with nsp13” value (“fluorescence intensity” below) is reported as “did not observe any apparent decrease in the fluorescence intensity”.

Consider `Nc1ccc([O-])c(=O)cc1.Nc1ccc([O-])c(=O)cc1.Nc1ccc([O-])c(=O)cc1.[Bi+3]` [Bi(Tro-NH2)3, Bi(5-aminotropolonate)3], for which the half-maximal inhibitory concentration (IC50) was found to be 0.36 ± 0.02 µM in experiment [1] and 0.03 µM in experiment [2] (read-out: IC50 for ATPase). Besides, the “fold lower ATPase IC50 than that of Bi(NAC)3” value in experiment [2] is reported as “over 30 fold”.

Regarding `N[C@@H](CCC(=O)N[C@@H](CS)C(=O)NCC(=O)O)C(=O)O` [GSH, glutathione], the “fluorescence intensity” value at SARS-CoV-2 nsp13 was “did not observe any apparent decrease in the fluorescence intensity”.

Turning to `CC(C)c1cccc(=O)c(O)c1` [Hino, hinokitiol], the “fluorescence intensity” value on SARS-CoV-2 nsp13 (setting [3]) is recorded as “did not observe any apparent decrease in the fluorescence intensity”.

For the molecule `CC(=O)N[C@@H](CS)C(=O)O` [NAC, N-acetyl cysteine], at SARS-CoV-2 nsp13 (setting [3]), the “fluorescence intensity” value is “did not observe any apparent decrease in the fluorescence intensity”.

Turning to colloidal bismuth subcitrate [CBS], the “fluorescence intensity” value on SARS-CoV-2 nsp13 is given as “decreased fluorescence intensities”.
